The numbers were not newly measured in patent US20260151310A1, “COSMETIC FOR HAIR GROWTH, COSMETIC RAW MATERIAL AND COSMETIC, AND METHOD FOR PRODUCING THE SAME” (Teika Pharmaceutical Co., Ltd., priority 2021, published 2026), which cites them from elsewhere.

This data set deals with hair density and hair thickness. The settings on record: compared with positive control minoxidil; Non Patent Literature 1.

Regarding `[O-][n+]1ccccc1[S-].[O-][n+]1ccccc1[S-].[Zn+2]` [pyrithione zinc], the “Effect on hair density and hair thickness” value is on record as “less than half the effect of a positive control minoxidil”.
